What follows are compounds tested against MCH receptor (Homo sapiens, UniProt Q99705) (assay: High throughput functional screening FLIPR/FDSS6000: inhibition of MCH-evoked intracellular Ca2+ changes). Conditions: class by percent of control at 10^-7 M or IC50.
Type: cell-based
Excerpt: Subsequently, a functional based assay was used to confirm the lead hits, referred to as FLIPR™ (the Fluorometric Imaging Plate Reader) and FDSS6000™ (Functional Drug Screening System). This assay utilized 3 non-endozenous, constitutively active version of the MCH receptor.
The FLIPR and FDSS assays are able to detect intracellular Ca^2+ concentration in cells, which can be utilized to assess receptor activation and determine whether a candidate compound is an, for example, antagonist, inverse agonist or agonist to a Gq-coupled receptor. The concentration of free Ca^2+ in the cytosol of any cell is extremely low, whereas its concentration in the extracellular fluid and endoplasmic reticulum (ER) is very high. Thus, there is a large gradient tending to drive Ca^2+ into the cytosol across both the plasma membrane and ER. The FLIPR™ and FDSS6000™ systems (Molecular Devices Corporation, HAMAMATSU Photonics K.K.) are designed to perform functional cell-based assays, such as the measurement of intracellular calcium for high-throughput screening, The measurement of fluorescent is associated with calcium release upon activation of the Gq-coupled receptors.
Fluorometric Imaging Plate Reader system was used to allow for rapid, kinetic measurements of intracellular fluorescence in 96 well microplates (or 384 well microplates). Simultaneous measurements of fluorescence in all wells can be made by FLIPR or FDSS6000™ every second with high sensitivity and precision. These systems are ideal for measuring cell-based functional assays such as monitoring the intracellular calcium fluxes that occur within seconds after activation of the Gq coupled receptor.
Briefly, the cells are seeded into 96 well at 5.5×10^4 cells/well with complete culture media (Dulbecco's Modified Eagle Medium with 10% fetal bovine serum, 2 mMi L-glutamine, 1 mM sodium pyruvate and 0.5 mg/ml G418, pH 7.4) for the assay next day. On the day of assay, the media is removed and the cells are incubated with 100 μl of loading buffer (4 μM Fluo4-AM in complete culture media containing 2.5 mM Probenicid, 0.5 mg/ml and 0.2% bovine serum albumin) in 5% CO2 incubator at 37° C. for 1 hr. The loading buffer is removed, and the cells are washed with wash buffer (Hank's Balanced Salt Solution containing 2.5 mM Probenicid, 20 mM HEPES, 0.5 mg/ml and 0.2% bovine serum albumm, pH 7.4)). One hundred fifty μl of wash buffer containing various concentrations of test compound is added to the cells, and the cells are incubated in 5% CO2 incubator at 37° C. for 3 min. Fifty μl of wash buffer containing various concentration of MCH are added to each well, and transient changes in [Ca^2+]i evokled bee MCH are monoitored using the FLIPR, or FDSS in 96 shell plates at Ex. 488 nm and Em. 530 nm for 290 second. When antagonist activity of compound is tested, 50 nM of MCH is used.
Use of FLIPR™ and FDSS6000™ can be accomplished by following manufacturer's instruction (Molecular Device Corporation and HAMAMATSU Photonics K.K.).

SMILES	class
CN(C)c1nc(N[C@H]2CC[C@@H](CNC(=S)Nc3ccc(Br)cc3OC(F)(F)F)CC2)nc2ccccc12 [compound 793]	2 (Class 2: The value of percent of control at 10^−7 M was from 40% to 60% or the value of IC50 was from 50 nM to 200 nM.)
CN(C)c1nc(N[C@H]2CC[C@@H](NC(=S)NC3C[C@@H]4CC[C@H]3C4)CC2)nc2ccccc12 (stereo partly drawn) [compound 239]	2 (Class 2: The value of percent of control at 10^−7 M was from 40% to 60% or the value of IC50 was from 50 nM to 200 nM.)
CN(C)c1nc(N[C@H]2CC[C@@H](CNC(=S)Nc3ccccc3)CC2)nc2ccccc12 [compound 615]	3 (Class 3: The value of percent of control at 10^−7 M was more than 60% or the value of IC50 was more than 200 nM.)
CN(C)c1nc(N[C@H]2CC[C@@H](CNC(=O)Nc3ccccc3)CC2)nc2ccccc12 [compound 452, N-[(cis-4-{[4-(dimethylamino)quinazolin-2-yl]amino}cyclohexyl)methyl]-N′-phenylurea]	1 (Class 1: The value of percent of control at 10^−7 M was less than 40% or the value of IC50 was less than 50 nM.)
CCOC(=O)[C@H](CC(C)C)NC(=O)NC[C@H]1CC[C@@H](Nc2nc(N(C)C)c3ccccc3n2)CC1 (relative stereo) [compound 435, ethyl N-({[(cis-4-{[4-(dimethylamino)quinazolin-2-yl]amino}cyclohexyl)methyl]amino}carbonyl)leucinate]	1 (Class 1: The value of percent of control at 10^−7 M was less than 40% or the value of IC50 was less than 50 nM.)
CCCNC(=S)NC[C@H]1CC[C@@H](Nc2nc(N(C)C)c3ccccc3n2)CC1 [compound 617]	3 (Class 3: The value of percent of control at 10^−7 M was more than 60% or the value of IC50 was more than 200 nM.)
CN(C)c1nc(N[C@H]2CC[C@@H](NC(=S)Nc3ccc(S(=O)(=O)N4CCCCC4)cc3)CC2)nc2ccccc12 [compound 357]	3 (Class 3: The value of percent of control at 10^−7 M was more than 60% or the value of IC50 was more than 200 nM.)
Cc1ccc(NC(=S)NC[C@H]2CC[C@@H](Nc3nc(N(C)C)c4ccccc4n3)CC2)c(Br)c1 [compound 676]	3 (Class 3: The value of percent of control at 10^−7 M was more than 60% or the value of IC50 was more than 200 nM.)
CN(C)c1nc(N[C@H]2CC[C@@H](CNC(=S)Nc3cccc([N+](=O)[O-])c3)CC2)nc2ccccc12 [compound 612]	3 (Class 3: The value of percent of control at 10^−7 M was more than 60% or the value of IC50 was more than 200 nM.)
CC(NC(=O)NCC1CCC(Nc2nc(N(C)C)c3ccccc3n2)CC1)c1ccccc1 (stereo not drawn) [compound 466, 1-[4-(4-Dimethylamino-quinazolin-2-ylamino)-cyclohexylmethyl]-3-(1-phenyl-ethyl)-urea]	2 (Class 2: The value of percent of control at 10^−7 M was from 40% to 60% or the value of IC50 was from 50 nM to 200 nM.)
CN(C)c1nc(N[C@H]2CC[C@@H](CNC(=S)NC3CCCCCCCCCCC3)CC2)nc2ccccc12 [compound 709, N-cyclododecyl-N′-[(cis-4-{[4-(dimethylamino)quinazolin-2-yl]amino}cyclohexyl)methyl]thiourea]	2 (Class 2: The value of percent of control at 10^−7 M was from 40% to 60% or the value of IC50 was from 50 nM to 200 nM.)
CC(NC(=O)NCC1CCC(Nc2nc(N(C)C)c3ccccc3n2)CC1)c1cccc2ccccc12 (stereo not drawn) [compound 467]	2 (Class 2: The value of percent of control at 10^−7 M was from 40% to 60% or the value of IC50 was from 50 nM to 200 nM.)
CN(C)c1nc(N[C@H]2CC[C@@H](CNC(=O)Nc3ccc(C#N)cc3)CC2)nc2ccccc12 [compound 549, N-(4-cyanophenyl)-N′-[(cis-4-{[4-(dimethylamino)quinazolin-2-yl]amino}cyclohexyl)methyl]urea]	1 (Class 1: The value of percent of control at 10^−7 M was less than 40% or the value of IC50 was less than 50 nM.)
COc1ccc(CNC(=S)N[C@H]2CC[C@@H](Nc3nc(N(C)C)c4ccccc4n3)CC2)cc1OC [compound 304]	3 (Class 3: The value of percent of control at 10^−7 M was more than 60% or the value of IC50 was more than 200 nM.)
CCN(CC)c1ccc(NC(=S)N[C@H]2CC[C@@H](Nc3nc(N(C)C)c4ccccc4n3)CC2)cc1 [compound 393]	3 (Class 3: The value of percent of control at 10^−7 M was more than 60% or the value of IC50 was more than 200 nM.)
CN(C)c1nc(N[C@H]2CC[C@@H](CNC(=O)NCc3ccc(Cl)c(Cl)c3)CC2)nc2ccccc12 [compound 521]	3 (Class 3: The value of percent of control at 10^−7 M was more than 60% or the value of IC50 was more than 200 nM.)
Cc1cccc(NC(=O)NC[C@H]2CC[C@@H](Nc3nc(N(C)C)c4ccccc4n3)CC2)c1C [compound 428, N-[(cis-4-{[4-(dimethylamino)quinazolin-2-yl]amino}cyclohexyl)methyl]-N′-(2,3-dimethylphenyl)urea]	1 (Class 1: The value of percent of control at 10^−7 M was less than 40% or the value of IC50 was less than 50 nM.)
CN(C)c1nc(N[C@H]2CC[C@@H](NC(=S)Nc3cccc(Cl)c3Cl)CC2)nc2ccccc12 [compound 210]	3 (Class 3: The value of percent of control at 10^−7 M was more than 60% or the value of IC50 was more than 200 nM.)

Same assay, conditions: class by percent of control at 10^-7 M or by IC50; read-out: class

IC50	SMILES
< 50 nM	CN(C)c1nc(N[C@H]2CC[C@@H](NC(=O)Nc3ccc(C#N)cc3)CC2)nc2ccccc12 [compound 149, N-(4-cyanophenyl)-N′-(cis-4-{[4-(dimethylamino)quinazolin-2-yl]amino}cyclohexyl)urea]
> 200 nM	CN(C)c1nc(N[C@H]2CC[C@@H](NC(=O)Nc3cc(Cl)c(Cl)cc3Cl)CC2)nc2ccccc12 [compound 74]
50 to 200 nM	CSc1ccccc1NC(=O)N[C@H]1CC[C@@H](Nc2nc(N(C)C)c3ccccc3n2)CC1 [compound 71]
50 to 200 nM	Cc1ccc(NC(=S)N[C@H]2CC[C@@H](Nc3nc(N(C)C)c4ccccc4n3)CC2)cc1 [compound 197, N-(cis-4-{[4-(dimethylamino)quinazolin-2-yl]amino}cyclohexyl)-N′-(4-methylphenyl)thiourea]
50 to 200 nM	COc1ccc(-c2ccccc2)cc1NC(=S)N[C@H]1CC[C@@H](Nc2nc(N(C)C)c3ccccc3n2)CC1 [compound 179, N-(cis-4-{[4-(dimethylamino)quinazolin-2-yl]amino}cyclohexyl)-N′-(4-methoxybiphenyl-3-yl)thiourea]
< 50 nM	CN(C)c1nc(N[C@H]2CC[C@@H](NC(=O)Nc3ccc(Cl)cc3C(F)(F)F)CC2)nc2ccccc12 [compound 145, N-[4-chloro-2-(trifluoromethyl)phenyl]-N′-(cis-4-{[4-(dimethylamino)quinazolin-2-yl]amino}cyclohexyl)urea]
> 200 nM	CN(C)c1nc(N[C@H]2CC[C@@H](NC(=O)Nc3ccc(Cl)c(Cl)c3)CC2)nc2ccccc12 [compound 20]
< 50 nM	Cc1ccc([N+](=O)[O-])cc1NC(=O)N[C@H]1CC[C@@H](Nc2nc(N(C)C)c3ccccc3n2)CC1 [compound 109, N-(cis-4-{[4-(dimethylamino)quinazolin-2-yl]amino}cyclohexyl)-N′-(2-methyl-5-nitrophenyl)urea]

SMILES	IC50
Cc1ccc(OC(=O)N[C@H]2CC[C@@H](Nc3nc(N(C)C)c4ccccc4n3)CC2)cc1 [compound 861]	> 200 nM

Same assay, conditions: class by percent of control at 10^−7 M or by IC50; read-out: class

IC50	SMILES
50 to 200 nM	CC(NC(=O)[C@H]1CC[C@@H](Nc2nc(N(C)C)c3cc(F)c(F)cc3n2)CC1)c1ccc(Br)cc1 (relative stereo) [Example 1008, cis-N-[1-(4-bromophenyl)ethyl]-4-{[4-(dimethylamino)-6,7-difluoroquinazolin-2-yl]amino}cyclohexanecarboxamide]
< 50 nM	CN(C)c1nc(N[C@H]2CC[C@@H](C(=O)Nc3ccc(Cl)nc3)CC2)nc2ccccc12 [Example 1196, cis-N-(6-chloropyridin-3-yl)-4-{[4-(dimethylamino)quinazolin-2-yl]amino}cyclohexanecarboxamide]
< 50 nM	Cc1ccccc1CNC(=O)[C@H]1CC[C@@H](Nc2nc(N(C)C)c3ccccc3n2)CC1 [Example 1166, cis-4-{[4-(dimethylamino)quinazolin-2-yl]amino}-N-(2-methylbenzyl)cyclohexanecarboxamide]
